The source made the active and inactive calls.
What was measured:
[1] = biological target: T1, ATP-dependent RNA helicase DHX30 (Homo sapiens, UniProt Q7L2E3)
T1 sequence (Q7L2E3 whole entry): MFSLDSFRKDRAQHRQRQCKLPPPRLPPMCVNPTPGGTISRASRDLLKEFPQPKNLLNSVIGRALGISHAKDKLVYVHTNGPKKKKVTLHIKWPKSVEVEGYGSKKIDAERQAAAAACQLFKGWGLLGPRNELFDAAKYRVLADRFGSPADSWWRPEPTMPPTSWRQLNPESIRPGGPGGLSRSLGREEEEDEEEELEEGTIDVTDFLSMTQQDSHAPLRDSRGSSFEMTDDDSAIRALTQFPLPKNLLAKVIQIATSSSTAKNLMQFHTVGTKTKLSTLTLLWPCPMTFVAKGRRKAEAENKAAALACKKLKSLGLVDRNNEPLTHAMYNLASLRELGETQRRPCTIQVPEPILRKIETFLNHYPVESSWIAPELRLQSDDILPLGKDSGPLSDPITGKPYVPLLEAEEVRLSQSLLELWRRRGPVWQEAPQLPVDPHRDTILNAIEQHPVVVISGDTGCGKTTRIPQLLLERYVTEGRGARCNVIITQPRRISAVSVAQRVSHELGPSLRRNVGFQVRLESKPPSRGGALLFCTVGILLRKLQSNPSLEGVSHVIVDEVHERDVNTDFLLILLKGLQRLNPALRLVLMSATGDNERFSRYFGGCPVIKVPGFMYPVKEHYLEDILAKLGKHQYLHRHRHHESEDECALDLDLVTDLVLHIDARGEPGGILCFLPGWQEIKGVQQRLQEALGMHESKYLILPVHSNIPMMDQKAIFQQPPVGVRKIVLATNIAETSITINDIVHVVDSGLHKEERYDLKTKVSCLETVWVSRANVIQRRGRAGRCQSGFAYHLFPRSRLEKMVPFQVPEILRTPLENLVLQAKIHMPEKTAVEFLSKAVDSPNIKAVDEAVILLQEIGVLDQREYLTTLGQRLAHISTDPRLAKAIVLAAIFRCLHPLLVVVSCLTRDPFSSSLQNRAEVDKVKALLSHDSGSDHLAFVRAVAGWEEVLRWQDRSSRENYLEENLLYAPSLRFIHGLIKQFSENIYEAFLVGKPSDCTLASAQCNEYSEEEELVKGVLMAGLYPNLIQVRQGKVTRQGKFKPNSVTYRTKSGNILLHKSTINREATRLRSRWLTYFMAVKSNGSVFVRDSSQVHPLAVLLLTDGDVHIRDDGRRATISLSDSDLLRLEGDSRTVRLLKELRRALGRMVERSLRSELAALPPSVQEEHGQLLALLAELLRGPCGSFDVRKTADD

[2] = biological target: Tyrosine-protein kinase FRK (Homo sapiens, UniProt P42685)
Tyrosine-protein kinase FRK, sequence (P42685 whole entry): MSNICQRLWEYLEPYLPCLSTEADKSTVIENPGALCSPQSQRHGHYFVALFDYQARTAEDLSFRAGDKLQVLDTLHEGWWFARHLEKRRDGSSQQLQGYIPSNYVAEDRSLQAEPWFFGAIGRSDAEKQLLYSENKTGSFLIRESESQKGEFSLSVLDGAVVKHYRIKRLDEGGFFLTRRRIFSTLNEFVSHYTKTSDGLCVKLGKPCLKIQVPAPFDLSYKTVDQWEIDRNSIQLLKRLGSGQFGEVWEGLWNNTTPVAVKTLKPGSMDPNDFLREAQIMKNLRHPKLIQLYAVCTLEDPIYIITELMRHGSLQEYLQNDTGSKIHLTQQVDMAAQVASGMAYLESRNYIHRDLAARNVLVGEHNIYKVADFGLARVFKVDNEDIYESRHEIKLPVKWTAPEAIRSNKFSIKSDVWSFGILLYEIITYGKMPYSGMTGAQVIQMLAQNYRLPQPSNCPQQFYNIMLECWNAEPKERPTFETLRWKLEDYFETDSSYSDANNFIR

[3] = biological target: T2, Acyl-CoA dehydrogenase family member 11 (Homo sapiens, UniProt Q709F0)
T2 sequence (Q709F0 whole entry): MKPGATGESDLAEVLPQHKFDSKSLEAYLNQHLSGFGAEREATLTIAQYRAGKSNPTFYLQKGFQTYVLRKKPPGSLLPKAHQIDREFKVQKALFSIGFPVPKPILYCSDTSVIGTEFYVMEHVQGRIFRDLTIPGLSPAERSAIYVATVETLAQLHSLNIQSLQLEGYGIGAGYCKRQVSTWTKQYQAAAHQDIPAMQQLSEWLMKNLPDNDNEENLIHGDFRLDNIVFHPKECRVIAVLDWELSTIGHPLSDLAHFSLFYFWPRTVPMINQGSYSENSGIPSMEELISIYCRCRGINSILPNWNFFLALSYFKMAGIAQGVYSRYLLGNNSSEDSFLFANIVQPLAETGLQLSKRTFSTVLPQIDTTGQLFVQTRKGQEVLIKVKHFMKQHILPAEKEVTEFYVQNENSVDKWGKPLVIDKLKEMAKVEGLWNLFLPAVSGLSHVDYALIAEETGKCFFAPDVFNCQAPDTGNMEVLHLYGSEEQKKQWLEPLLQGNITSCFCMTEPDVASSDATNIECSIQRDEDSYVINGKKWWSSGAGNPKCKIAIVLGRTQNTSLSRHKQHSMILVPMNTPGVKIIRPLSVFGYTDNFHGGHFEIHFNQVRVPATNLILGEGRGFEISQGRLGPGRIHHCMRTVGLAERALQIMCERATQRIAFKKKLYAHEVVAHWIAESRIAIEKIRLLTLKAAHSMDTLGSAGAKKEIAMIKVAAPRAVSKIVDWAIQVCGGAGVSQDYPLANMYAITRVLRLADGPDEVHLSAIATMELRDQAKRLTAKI

[4] = biological target: T3, Membrane-associated tyrosine- and threonine-specific cdc2-inhibitory kinase (Homo sapiens, UniProt Q99640)
T3 sequence (Q99640 whole entry): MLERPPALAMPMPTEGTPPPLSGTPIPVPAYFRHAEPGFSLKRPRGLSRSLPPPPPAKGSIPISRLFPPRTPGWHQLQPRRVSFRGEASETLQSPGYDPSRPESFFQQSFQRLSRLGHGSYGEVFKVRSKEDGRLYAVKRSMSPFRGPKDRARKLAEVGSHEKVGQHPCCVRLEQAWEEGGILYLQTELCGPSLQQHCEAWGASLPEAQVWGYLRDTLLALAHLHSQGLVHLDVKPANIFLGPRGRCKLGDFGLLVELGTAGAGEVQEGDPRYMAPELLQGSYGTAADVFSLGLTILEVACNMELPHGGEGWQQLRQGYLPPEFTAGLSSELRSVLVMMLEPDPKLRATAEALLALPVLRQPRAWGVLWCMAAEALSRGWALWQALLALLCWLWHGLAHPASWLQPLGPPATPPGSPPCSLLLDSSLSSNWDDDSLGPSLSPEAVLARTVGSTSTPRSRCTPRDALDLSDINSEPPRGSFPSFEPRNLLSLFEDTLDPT

[5] = biological target: T4, AarF domain-containing protein kinase 1 (Homo sapiens, UniProt Q86TW2)
T4 sequence (Q86TW2 whole entry): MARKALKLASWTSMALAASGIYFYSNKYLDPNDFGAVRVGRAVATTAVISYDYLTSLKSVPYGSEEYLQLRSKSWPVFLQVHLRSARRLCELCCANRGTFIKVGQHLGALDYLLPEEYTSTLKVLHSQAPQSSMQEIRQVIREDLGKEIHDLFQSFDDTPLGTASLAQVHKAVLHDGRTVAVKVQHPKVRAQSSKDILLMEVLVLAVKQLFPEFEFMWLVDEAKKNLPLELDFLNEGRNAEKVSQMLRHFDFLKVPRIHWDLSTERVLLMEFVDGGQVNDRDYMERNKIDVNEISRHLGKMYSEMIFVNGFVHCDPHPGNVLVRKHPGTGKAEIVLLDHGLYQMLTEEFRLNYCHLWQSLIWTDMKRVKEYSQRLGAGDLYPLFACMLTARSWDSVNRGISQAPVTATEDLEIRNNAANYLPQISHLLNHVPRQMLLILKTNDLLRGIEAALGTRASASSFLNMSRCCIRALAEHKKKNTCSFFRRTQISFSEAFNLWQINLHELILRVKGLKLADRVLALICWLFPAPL
Also: in the data inactive means no Kd found up to 30 µM.

| Compound | Kd [1] | Kd [2] | Kd [3] | Kd [4] | Kd [5] |
| --- | --- | --- | --- | --- | --- |
| C=CC(=O)N1CCC[C@H](n2c(=O)n(-c3ccc(Oc4ccccc4)cc3)c3c(N)ncnc32)C1 | > 30 µM (inactive) | > 30 µM (inactive) | > 30 µM (inactive) | > 30 µM (inactive) | > 30 µM (inactive) |
| Cc1nc2cc(-c3nn(C(C)C)c4ncnc(N)c34)ccc2o1 | > 30 µM (inactive) | > 30 µM (inactive) | > 30 µM (inactive) | > 30 µM (inactive) | > 30 µM (inactive) |
| COCc1c(-c2ccc(NC(=O)Nc3cc(C(F)(F)F)ccc3F)c(F)c2)c2c(N)ncnn2c1CN1CCOCC1 | > 30 µM (inactive) | 1.86 µM (active) | > 30 µM (inactive) | > 30 µM (inactive) | > 30 µM (inactive) |
| COc1cc(Nc2ncc3c(n2)-c2ccc(Cl)cc2C(c2c(F)cccc2OC)=NC3)ccc1C(=O)O [ALISERTIB] | > 30 µM (inactive) | – | > 30 µM (inactive) | > 30 µM (inactive) | > 30 µM (inactive) |
| Cc1csc(-c2nnc(Nc3ccc(Oc4ncccc4-c4ccnc(N)n4)cc3)c3ccccc23)c1 [AMG-900] | > 30 µM (inactive) | > 30 µM (inactive) | > 30 µM (inactive) | > 30 µM (inactive) | > 30 µM (inactive) |
| O=C(Nc1c[nH]nc1-c1nc2cc(CN3CCOCC3)ccc2[nH]1)NC1CC1 [AT-9283] | > 30 µM (inactive) | > 30 µM (inactive) | > 30 µM (inactive) | > 30 µM (inactive) | 0.559 µM (active) |
| NC(=O)Nc1cc(-c2cccc(F)c2)sc1C(=O)N[C@H]1CCCNC1 [AZD-7762] | > 30 µM (inactive) | 1.21 µM (active) | > 30 µM (inactive) | > 30 µM (inactive) | > 30 µM (inactive) |
| Cc1cc(C(=O)NOCCO)c(Nc2ccc(I)cc2F)n(C)c1=O [AZD-8330] | > 30 µM (inactive) | > 30 µM (inactive) | > 30 µM (inactive) | > 30 µM (inactive) | > 30 µM (inactive) |
| Cn1cnc2c(F)c(Nc3ccc(Br)cc3F)c(C(=O)NOCCO)cc21 [BINIMETINIB] | > 30 µM (inactive) | > 30 µM (inactive) | > 30 µM (inactive) | > 30 µM (inactive) | > 30 µM (inactive) |
| COc1cc2ncnc(Oc3cccc(NC(=O)Nc4cc(C(C)(C)C(F)(F)F)on4)c3)c2cc1OC [CEP-32496] | > 30 µM (inactive) | 0.85 µM | > 30 µM (inactive) | > 30 µM (inactive) | > 30 µM (inactive) |
| Cc1cc(Nc2ncc(Cl)c(Nc3ccccc3S(=O)(=O)C(C)C)n2)c(OC(C)C)cc1C1CCNCC1 [CERITINIB] | > 30 µM (inactive) | > 30 µM (inactive) | > 30 µM (inactive) | > 30 µM (inactive) | > 30 µM (inactive) |
